Structures are written as SMILES. Where two headings read alike, the source gives them in different places.

One assay concerns the target T1, STAT6 (Homo sapiens, UniProt P42226).
T1 construct: stably transfected HaCaT keratinocyte cell line, which expresses NanoLuc luciferase reporter gene under the transcriptional control of the STAT6 responsive promoter; endogenous in cells; host or cells: HaCaT keratinocyte reporter cell line (stably transfected with a NanoLuc reporter)
T1 sequence (P42226 1-847): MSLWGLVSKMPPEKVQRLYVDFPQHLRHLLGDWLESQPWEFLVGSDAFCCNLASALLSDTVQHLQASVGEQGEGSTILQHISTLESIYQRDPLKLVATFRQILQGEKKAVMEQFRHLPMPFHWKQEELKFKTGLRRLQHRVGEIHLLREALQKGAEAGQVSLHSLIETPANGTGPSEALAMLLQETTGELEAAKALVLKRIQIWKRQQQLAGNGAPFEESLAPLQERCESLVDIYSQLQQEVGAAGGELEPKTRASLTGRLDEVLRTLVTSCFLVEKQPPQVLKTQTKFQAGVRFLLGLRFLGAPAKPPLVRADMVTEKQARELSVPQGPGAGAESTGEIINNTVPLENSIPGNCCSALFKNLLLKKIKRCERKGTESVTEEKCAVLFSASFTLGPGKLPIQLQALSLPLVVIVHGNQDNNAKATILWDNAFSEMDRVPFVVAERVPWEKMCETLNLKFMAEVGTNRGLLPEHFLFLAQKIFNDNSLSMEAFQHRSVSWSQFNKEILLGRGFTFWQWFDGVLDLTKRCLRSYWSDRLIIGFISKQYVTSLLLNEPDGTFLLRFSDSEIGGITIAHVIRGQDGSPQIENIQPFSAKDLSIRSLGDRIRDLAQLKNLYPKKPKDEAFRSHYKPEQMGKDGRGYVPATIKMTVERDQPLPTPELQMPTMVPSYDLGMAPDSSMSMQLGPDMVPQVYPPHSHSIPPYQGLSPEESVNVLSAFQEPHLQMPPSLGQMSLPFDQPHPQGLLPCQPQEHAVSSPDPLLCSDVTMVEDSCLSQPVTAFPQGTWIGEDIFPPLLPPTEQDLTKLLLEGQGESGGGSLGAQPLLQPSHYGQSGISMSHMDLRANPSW
The experiment in a line: STAT6 Reporter Luciferase Assay (IL-13 stimulated HaCaT keratinocyte NanoLuc reporter cells). Conditions: read-out: Reporter EC50. Type of assay: cell-based. The essentials:
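HaCaT IL-13Ra2-promoter NanoLuc reporter; cpd 2 h 37 °C in DMEM/2% HI FBS; IL-13 0.12 nM final, 4 h; Nano-Glo luminescence.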

Assay [1] relates to CCL17 secretion in peripheral human whole blood. Briefly: Human Whole Blood (HWB) CCL17 TR-FRET Assay (IL-13 stimulated CCL17 secretion). Type of assay: cell-based. The essentials:
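TR-FRET sandwich immunoassay (665/615 nm ratio) read CCL17 in serum from heparinized whole blood after 16 h RT detection. Blood was exposed to compound for 2 h at 37 °C, then to 10 ng/mL IL-13 (final) for 48 h. IC50 from 11-point, 3-fold titrations in duplicate.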

Where [2] appears, read: IL-13 stimulated HaCaT STAT6 NanoLuc reporter cells.
[3] abbreviates: Homo sapiens, 48 h, human whole blood, 10 ng/mL IL13, 48 hours.
[4] abbreviates: STAT6 NanoLuc luciferase reporter, IL-13 stimulated HaCaT keratinocyte cells.
Where [5] appears, read: Homo sapiens, 48 h, inhibition of CCL17 secretion in human whole blood, 10 ng/mL IL13, 48 hours.
Where [6] appears, read: Homo sapiens, 48 h, human whole blood, IL-13 stimulated.
Setting [7] is: human whole blood, IL-13 stimulated, 48 hours.

Turning to `CC(C)c1nc(C(=O)NCc2ccc(NC(=O)N(C)C)cc2)c2n1[C@@H](C)CN(c1ccc(C(=O)N(C)C)cc1)C2` (racemic) [Example 537, rac-(R)-7-(4-(Dimethylcarbamoyl)phenyl)-N-(4-(3,3-dimethylureido)benzyl)-3-isopropyl-5-methyl-5,6,7,8-tetrahydroimidazo[1,5-a]pyrazine-1-carboxamide], on STAT6 (setting [2]), the EC50 turned out to be 0.001 µM. The same molecule displayed an IC50 in assay [1] (setting [3]) of 0.01 µM.
For the molecule `CC(C)n1nc(C(=O)NCc2ccc(NC(=O)N3CCC(CO)CC3)cc2)c2c1CCN(c1ccc(C(=O)N(C)C)cn1)C2` [Example 175, 5-(5-(dimethylcarbamoyl)pyridin-2-yl)-N-(4-(4-(hydroxymethyl)piperidine-1-carboxamido)benzyl)-1-isopropyl-4,5,6,7-tetrahydro-1H-pyrazolo[4,3-c]pyridine-3-carboxamide], at STAT6 (setting [4]), the concentration giving a half-maximal response (EC50) turned out to be 0.007 µM. In assay [1] (setting [5]), this molecule displayed an IC50 of 0.067 µM.
For the molecule `C[C@H]1Cc2c(c(C(=O)NCc3ccc(NC(=O)N(C)C)cc3)nn2C)CN1c1ccc(-c2nccn2C)cn1` [Example 259, (S)-N-(4-(3,3-dimethylureido)benzyl)-1,6-dimethyl-5-(5-(1-methyl-1H-imidazol-2-yl)pyridin-2-yl)-4,5,6,7-tetrahydro-1H-pyrazolo[4,3-c]pyridine-3-carboxamide], the 50% effective concentration (EC50) on STAT6 (setting [2]) stood at 0.002 µM. Further, half-maximal inhibition in assay [1] (setting [6]) (IC50) was put at 0.03 µM.
As for `CN[C@H]1CCCN(C(=O)Nc2ccc(CNC(=O)c3nn(C(C)C)c4c3CN(c3ccc(C(=O)N(C)C)cc3)C[C@@H]4C)cc2F)C1` [Example 569, (S)-5-(4-(dimethylcarbamoyl)phenyl)-N-(3-fluoro-4-((S)-3-(methylamino)piperidine-1-carboxamido)benzyl)-1-isopropyl-7-methyl-4,5,6,7-tetrahydro-1H-pyrazolo[4,3-c]pyridine-3-carboxamide], the half-maximal effective concentration (EC50) at STAT6 (setting [2]) is 0.004 µM. Further, it took 0.02 µM to reach half-maximal inhibition in assay [1] (setting [3]) (IC50).
Regarding `CC(C)n1nc(C(=O)NCc2ccc(NC(=O)N3CC(C#N)C3)cc2)c2c1CCN(c1ccc(C(=O)N(C)C)cn1)C2` [Example 158, N-(4-(3-cyanoazetidine-1-carboxamido)benzyl)-5-(5-(dimethylcarbamoyl)pyridin-2-yl)-1-isopropyl-4,5,6,7-tetrahydro-1H-pyrazolo[4,3-c]pyridine-3-carboxamide], the EC50 on STAT6 (setting [4]) amounted to 0.015 µM. The IC50 in assay [1] (setting [5]) was 0.13 µM.
In the case of `CCn1nc(C(=O)NCc2ccc(C(=O)NC)cc2)c2c1[C@@H](C)CN(c1ncc(N3CCCC3=O)cn1)C2` [Example 484, (S)-1-ethyl-7-methyl-N-(4-(methylcarbamoyl)benzyl)-5-(5-(2-oxopyrrolidin-1-yl)pyrimidin-2-yl)-4,5,6,7-tetrahydro-1H-pyrazolo[4,3-c]pyridine-3-carboxamide], the EC50 at STAT6 (setting [2]) was 0.026 µM. In assay [1] (setting [6]), this molecule gave a 50% inhibitory concentration (IC50) of 0.108 µM.
On to `CC(C)n1nc(C(=O)NCc2ccc(NC(=O)N(C)C)cc2)c2c1C(C(F)F)CN(c1ccc(C(=O)N(C)C)cn1)C2` (single isomer, unassigned) [Example 493, rel-(R or S)-7-(difluoromethyl)-5-(5-(dimethylcarbamoyl)pyridin-2-yl)-N-(4-(3,3-dimethylureido)benzyl)-1-isopropyl-4,5,6,7-tetrahydro-1H-pyrazolo[4,3-c]pyridine-3-carboxamide], for which the concentration giving a half-maximal response (EC50) on STAT6 (setting [2]) came out at 0.028 µM. In addition, the half-inhibitory concentration (IC50) in assay [1] (setting [7]) was 0.203 µM.
`CC(C)n1nc(C(=O)NCc2ccc(NC(=O)N[C@H]3C[C@@H](O)C3)cc2)c2c1CCN(c1ccc(C(=O)N(C)C)cn1)C2` [Example 169]: the EC50 on STAT6 (setting [4]) worked out at 0.032 µM. For the same molecule, the IC50 in assay [1] (setting [5]) is 0.125 µM.
For `CCn1nc(C(=O)NCc2ccc(NC(=O)NC)cc2)c2c1[C@@H](C)CN(c1ccc(N3CCCC3=O)cn1)C2` [Example 476, (S)-1-ethyl-7-methyl-N-(4-(3-methylureido)benzyl)-5-(5-(2-oxopyrrolidin-1-yl)pyridin-2-yl)-4,5,6,7-tetrahydro-1H-pyrazolo[4,3-c]pyridine-3-carboxamide], on STAT6 (setting [2]), the EC50 stood at 0.001 µM. Moreover, inhibition in assay [1] (setting [6]) was half-maximal at 0.009 µM (IC50).
For `CCn1nc(C(=O)NCc2ccc(NC(=O)N(C)C)cc2)c2c1CCN(c1ncc(C(=O)N(C)C)cn1)[C@@H]2C` (single isomer, unassigned) [Example 511] the same measures were 0.006 µM and 0.029 µM.
For the molecule `CC(C)C1CN(c2ccc(C(=O)N(C)C)cn2)Cc2c(C(=O)NCc3ccc(NC(=O)N(C)C)cc3)nn(C)c21` (single isomer, unassigned) [Example 272, rel-(R or S)-5-(5-(dimethylcarbamoyl)pyridin-2-yl)-N-(4-(3,3-dimethylureido)benzyl)-7-isopropyl-1-methyl-4,5,6,7-tetrahydro-1H-pyrazolo[4,3-c]pyridine-3-carboxamide], at STAT6 (setting [2]), the EC50 is 0.004 µM. This molecule also gave an IC50 in assay [1] (setting [7]) of 0.03 µM.
On to `CC(C)n1nc(C(=O)NCc2ccc(NC(=O)N3CC4(CCN(C)C4)C3)c(F)c2)c2c1[C@@H](C)CN(c1ccc(C(=O)N(C)C)cn1)C2` [Example 603, (S)-5-(5-(dimethylcarbamoyl)pyridin-2-yl)-N-(3-fluoro-4-(6-methyl-2,6-diazaspiro[3.4]octane-2-carboxamido)benzyl)-1-isopropyl-7-methyl-4,5,6,7-tetrahydro-1H-pyrazolo[4,3-c]pyridine-3-carboxamide], for which the EC50 at STAT6 (setting [2]) came to 0.003 µM. In assay [1] (setting [3]), this molecule came in with an IC50 of 0.031 µM.
Consider `CC(C)n1nc(C(=O)NCc2ccc(NC(=O)N(C)C)cn2)c2c1C[C@H](C)N(c1ncc(C(=O)N(C)C)cn1)C2` [Example 533, (S)-5-(5-(dimethylcarbamoyl)pyrimidin-2-yl)-N-((5-(3,3-dimethylureido)pyridin-2-yl)methyl)-1-isopropyl-6-methyl-4,5,6,7-tetrahydro-1H-pyrazolo[4,3-c]pyridine-3-carboxamide], for which the EC50 at STAT6 (setting [2]) turned out to be 0.005 µM. Besides, the IC50 in assay [1] (setting [3]) turned out to be 0.018 µM.
With `CC(C)n1nc(C(=O)NCc2ccc(NC(=O)N(C)C)cc2)c2c1C[C@H](C)N(c1ncc(C(=O)N(C)C)cn1)C2` [Example 452, (S)-5-(5-(dimethylcarbamoyl)pyrimidin-2-yl)-N-(4-(3,3-dimethylureido)benzyl)-1-isopropyl-6-methyl-4,5,6,7-tetrahydro-1H-pyrazolo[4,3-c]pyridine-3-carboxamide], at STAT6 (setting [2]), the EC50 stood at 0.003 µM. This molecule displayed an IC50 in assay [1] (setting [6]) of 0.016 µM.
Turning to `CNC(=O)c1ccc(CNC(=O)c2nn(C(C)C)c3c2CN(c2ccc(N4CCCC4=O)cn2)C[C@@H]3C)cc1` [Example 478, (S)-1-isopropyl-7-methyl-N-(4-(methylcarbamoyl)benzyl)-5-(5-(2-oxopyrrolidin-1-yl)pyridin-2-yl)-4,5,6,7-tetrahydro-1H-pyrazolo[4,3-c]pyridine-3-carboxamide], the EC50 at STAT6 (setting [2]) amounted to 0.002 µM. This molecule also had a concentration for half-maximal inhibition (IC50) in assay [1] (setting [6]) of 0.017 µM.
Take `CC(C)n1nc(C(=O)NCc2ccc(-c3nccc(=O)[nH]3)cc2)c2c1CCN(c1ccc(C(=O)N(C)C)cn1)C2` [Example 43, 5-(5-(Dimethylcarbamoyl)pyridin-2-yl)-1-isopropyl-N-(4-(6-oxo-1,6-dihydropyrimidin-2-yl)benzyl)-4,5,6,7-tetrahydro-1H-pyrazolo[4,3-c]pyridine-3-carboxamide]: on STAT6 (setting [4]), the 50% effective concentration (EC50) is 0.286 µM. Also, the IC50 in assay [1] (setting [5]) worked out at 1.3 µM.
For the molecule `CC(C)n1nc(C(=O)NCc2ccc(NC(=O)N3CCN4CCC[C@@H]4C3)cc2)c2c1[C@@H](C)CN(c1ccc(C(=O)N(C)C)cc1)C2` [Example 574, (S)-5-(4-(dimethylcarbamoyl)phenyl)-1-isopropyl-7-methyl-N-(4-((R)-octahydropyrrolo[1,2-a]pyrazine-2-carboxamido)benzyl)-4,5,6,7-tetrahydro-1H-pyrazolo[4,3-c]pyridine-3-carboxamide], the EC50 at STAT6 (setting [2]) came out at 0.0005 µM. Further, it took 0.011 µM to reach half-maximal inhibition in assay [1] (setting [3]) (IC50).

For the origin of these results see patent publication US20250320213A1, “Nitrogen-Containing Heterocyclic Compounds” (Pfizer Inc., priority 2024, published 2025).
